In test [1] the target is T1, BRD4 Bromodomain 1 (BRD4 BD1) (Homo sapiens, UniProt O60885).
T1 construct: 44-168 and BRD4 BD2
Kind of test: AlphaScreen binding assay, BRD4 BD1. The following applies: His-tagged BRD4 BD1 50 nM, biotinylated H4 (1-21) K5/8/12/16 tetra-acetylated peptide 50 nM, compounds listed under IC50 range headings. The essentials:
(§1)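 An AlphaScreen competition format was used with His-BRD4 BD1 or BD2 and biotin-H4 K5/8/12/16-acetyl peptide, each at matched final levels of 50 nM (BD1) or 100 nM (BD2). Incubation in HEPES/NaCl buffer with 0.1% BSA and 0.01% Triton X-100 ran ≥1 h before IC50 determination.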

Test [2] has as its target T2, BRD4 Bromodomain 2 (BRD4 BD2) (Homo sapiens, UniProt O60885).
T2 construct: 333-460 were cloned, expressed, and purified to homogeneity
Description: AlphaScreen binding assay, BRD4 BD2. The following applies: His-tagged BRD4 BD2 100 nM, biotinylated H4 (1-21) K5/8/12/16 tetra-acetylated peptide 100 nM, compounds listed under IC50 range headings. The essentials:
as §1

In test [3] the test system is acute myelocytic leukemia (AML) cell line MV4-11. Kind of test: Oncology cell growth assay (3-day proliferation, CellTiter-Glo). Conditions: Homo sapiens, MV4-11, 72 h, MV4-11 cells, 3000 cells/well, compounds listed under IC50 range headings, read-out: MV411 IC50 (gIC50, inhibition of proliferation). It counts as cell-based. The essentials:
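A 3-day proliferation test used MV4-11 cells seeded at 3000 per well with eight compound concentrations (10 μM top, 3-fold dilution) at 37° C in 5% CO2. CellTiter-Glo luminescence defined viable cell signal. A four-parameter logistic curve against DMSO and background wells gave the gIC50.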
In general terms: ATP-based viability assays read luminescence as a measure of living cells.

The results in this text go back to patent US10611750B2, “Tetrahydroquinoline compositions as bet bromodomain inhibitors” (FORMA Therapeutics, Inc., priority 2013, dated 2020).

As to `CC(=O)N1c2ccc(-c3cnn(C4CC4)c3)c(Oc3nccc4ccccc34)c2CC[C@@H]1C` [I-257, (S)-1-(6-(1-cyclopropyl-1H-pyrazol-4-yl)-5-(isoquinolin-1-yloxy)-2-methyl-3,4-dihydroquinolin-1(2H)-yl)ethanone], the IC50 in test [1] is 1000 to 10000 nM; in test [2], under 50 nM; in test [3] it was under 500 nM.

For `CCCOc1c(-c2cc3ccccn3n2)ccc2c1CC[C@H](C)N2C(C)=O` [I-118, (S)-1-(2-methyl-5-propoxy-6-(pyrazolo[1,5-a]pyridin-2-yl)-3,4-dihydroquinolin-1(2H)-yl)ethanone], the IC50 in test [1] is 1000 to 10000 nM; in test [2], at least 500 nM; in test [3] it was over 1000 nM.

For the compound `COc1cnc(Oc2c(-c3cnn(CCO)c3)ccc3c2CC[C@H](C)N3C(C)=O)nc1` [I-546], the IC50 is 100 to 1000 nM in test [1], under 50 nM in test [2] and 500 to 1000 nM in test [3].

As to `CC(=O)N1c2ccc(-c3ccc(N4CCCS4(=O)=O)cc3)c(Oc3ncc(F)cn3)c2CC[C@@H]1C` [I-553], the IC50 was 100 to 1000 nM in test [1], under 50 nM in test [2] and under 500 nM in test [3].

With `CC(=O)N1c2ccc(-c3cnn(C4CC4)c3)c(OCC3(C)COC3)c2CC[C@@H]1C` [I-395], the IC50 in test [1] fell in the range of 100 to 1000 nM; in test [2], 50 to 500 nM; in test [3], 500 to 1000 nM.

Turning to `COC(=O)N1c2ccc(-c3cnn(C4CNC4)c3)c(Oc3ccccc3C#N)c2CC[C@@H]1C` [I-138, (S)-methyl 6-(1-(azetidin-3-yl)-1H-pyrazol-4-yl)-5-(2-cyanophenoxy)-2-methyl-3,4-dihydroquinoline-1(2H)-carboxylate], the IC50 was 100 to 1000 nM in test [1], under 50 nM in test [2] and under 500 nM in test [3].

Consider `COC(=O)N1c2ccc(-c3cnn(C4CCNCC4)c3)c(Oc3ccc(C(N)=O)cn3)c2CC[C@@H]1C` [I-538], for which the figures for the IC50 in test [1], in test [2] and in test [3] were 1000 to 10000 nM, 50 to 500 nM and over 1000 nM, respectively.

As for `CCCOc1c(-c2ccc(S(C)(=O)=O)cn2)ccc2c1CC[C@H](C)N2C(C)=O` [I-114, (S)-1-(2-methyl-6-(5-(methylsulfonyl)pyridin-2-yl)-5-propoxy-3,4-dihydroquinolin-1(2H)-yl)ethanone], the IC50 in test [1] was 1000 to 10000 nM; in test [2] it was 50 to 500 nM; in test [3] it was over 1000 nM.

Take `COC(=O)N1c2ccc(-c3cnn(C4CS(=O)(=O)C4)c3)c(OC3CCC3)c2CC[C@@H]1C` [I-61, Methyl (S)-5-cyclobutoxy-6-(1-(1,1-dioxidothietan-3-yl)-1H-pyrazol-4-yl)-2-methyl-3,4-dihydroquinoline-1(2H)-carboxylate]: the IC50 in test [1] was 100 to 1000 nM; in test [2], 50 to 500 nM; in test [3], under 500 nM.

As to `COC(=O)N1c2ccc(-c3cnn(C4CCNCC4)c3)c(OCC(C)C)c2CC[C@@H]1C` [I-458], the IC50 in test [1] was 100 to 1000 nM; in test [2], under 50 nM; in test [3] it was under 500 nM.

Regarding `COC(=O)N1c2ccc(-c3cnn(CC(C)(C)O)c3)c(Oc3ncc(C)cn3)c2CC[C@@H]1C` [I-583], the IC50 in test [1] is 1000 to 10000 nM; in test [2], 50 to 500 nM; in test [3], under 500 nM.

On to `CCCOc1c(-c2ccc(NS(C)(=O)=O)cn2)ccc2c1CC[C@H](C)N2C(C)=O` [I-115, (S)—N-(6-(1-acetyl-2-methyl-5-propoxy-1,2,3,4-tetrahydroquinolin-6-yl)pyridin-3-yl)methanesulfonamide], for which the IC50 is 1000 to 10000 nM in test [1], 50 to 500 nM in test [2] and over 1000 nM in test [3].

With `CC(=O)N1c2ccc(-c3cnn(C4CC4)c3)c(OCC3(F)COC3)c2CC[C@@H]1C` [I-50, (S)-1-(6-(1-cyclopropyl-1H-pyrazol-4-yl)-5-((3-fluorooxetan-3-yl)methoxy)-2-methyl-3,4-dihydroquinolin-1 (2H)-yl)ethanone], the IC50 in test [1] was 100 to 1000 nM; in test [2] it was under 50 nM; in test [3], 500 to 1000 nM.

Consider `CC(=O)N1c2ccc(-c3cnn(CCO)c3)c(Oc3ncccn3)c2CC[C@@H]1C` [I-80, (S)-1-(6-(1-(2-hydroxyethyl)-1H-pyrazol-4-yl)-2-methyl-5-(pyrimidin-2-yloxy)-3,4-dihydroquinolin-1 (2H)-yl)ethanone], for which the IC50 in test [1] is 100 to 1000 nM; in test [2] it was under 50 nM; in test [3], under 500 nM.

On to `CC(=O)N1c2ccc(-c3cnn(CCO)c3)c(OC3CCC3)c2CC[C@@H]1C` [I-411], for which the IC50 is 100 to 1000 nM in test [1], under 50 nM in test [2] and under 500 nM in test [3].

For the compound `COC(=O)N1c2ccc(-c3cnn(C4CC4)c3)c(Oc3ncc(C)cn3)c2CC[C@@H]1C` [I-585], the IC50 in test [1] is 100 to 1000 nM; in test [2] it was 50 to 500 nM; in test [3] it was under 500 nM.

In the case of `CCCOc1c(-c2cnn(C3CC3)c2)ccc2c1CC[C@H](C)N2C(C)=O` [I-387], the IC50 in test [1] was 100 to 1000 nM; in test [2], under 50 nM; in test [3], under 500 nM.

On to `COC(=O)N1c2ccc(-c3cnn(C4CCNCC4)c3)c(Oc3ncc(C)cn3)c2CC[C@@H]1C` [I-535], for which the IC50 was 1000 to 10000 nM in test [1], 50 to 500 nM in test [2] and under 500 nM in test [3].

As to `COC(=O)N1c2ccc(-c3cnn(C4CCNCC4)c3)c(Oc3ncccc3C(F)(F)F)c2CC[C@@H]1C` [I-527], the IC50 in test [1] was 1000 to 10000 nM; in test [2], 50 to 500 nM; in test [3] it was under 500 nM.

Take `CC(=O)N1c2ccc(-c3cnn(C4CCNCC4)c3)c(Oc3nccc(C(F)(F)F)n3)c2CC[C@@H]1C` [I-514]: the IC50 in test [1] is 1000 to 10000 nM; in test [2], 50 to 500 nM; in test [3], under 500 nM.

On to `CC(=O)N1c2ccc(-c3cnn(C4CCNCC4)c3)c(Oc3ccnc(C(F)(F)F)n3)c2CC[C@@H]1C` [I-515], for which the IC50 in test [1] was in the range of 1000 to 10000 nM; in test [2] it was 50 to 500 nM; in test [3] it was 500 to 1000 nM.

As for `CC(=O)N1c2ccc(-c3cnn(CCO)c3)c(Oc3ncc(C(C)C)cn3)c2CC[C@@H]1C` [I-545], the IC50 in test [1] was 100 to 1000 nM; in test [2], under 50 nM; in test [3] it was under 500 nM.

In the case of `COC(=O)N1c2ccc(-c3cnn(C4CC4)c3)c(Oc3ncc(C(F)(F)F)cn3)c2CC[C@@H]1C` [I-581], the IC50 was 1000 to 10000 nM in test [1], 50 to 500 nM in test [2] and over 1000 nM in test [3].

With `COC(=O)N1c2ccc(-c3cnn(C4CCNCC4)c3)c(Oc3cccc(F)c3)c2CC[C@@H]1C` [I-188, Methyl (S)-5-(3-fluorophenoxy)-2-methyl-6-(1-(piperidin-4-yl)-1H-pyrazol-4-yl)-3,4-dihydroquinoline-1(2H)-carboxylate], the IC50 in test [1] was 100 to 1000 nM; in test [2], under 50 nM; in test [3], under 500 nM.

In the case of `CC(=O)N1c2ccc(-c3cnn(C4CC4)c3)c(Oc3ccccc3F)c2CC[C@@H]1C` [I-210, (S)-1-(6-(1-cyclopropyl-1H-pyrazol-4-yl)-5-(2-fluorophenoxy)-2-methyl-3,4-dihydroquinolin-1(2H)-yl)ethanone], the IC50 is 100 to 1000 nM in test [1], under 50 nM in test [2] and under 500 nM in test [3].

As for `CC(=O)N1c2ccc(-c3cnn(C4CCNCC4)c3)c(OCC(=O)N3CCCC3)c2CC[C@@H]1C` [I-431], the results for the IC50 in test [1], in test [2] and in test [3] were 100 to 1000 nM, 50 to 500 nM and 500 to 1000 nM, respectively.

`CC(=O)N1c2ccc(-c3cnn(C4CC4)c3)c(Oc3ccc(F)cc3)c2CC[C@@H]1C` [I-225, (S)-1-(6-(1-cyclopropyl-1H-pyrazol-4-yl)-5-(4-fluorophenoxy)-2-methyl-3,4-dihydroquinolin-1(2H)-yl)ethanone]: the IC50 in test [1] is 100 to 1000 nM; in test [2] it was under 50 nM; in test [3], under 500 nM.

`CC(=O)N1c2ccc(-c3cnn(C4CC4)c3)c(Oc3nc4ccccc4o3)c2CC[C@@H]1C` [I-78, (S)-1-(5-(benzo[d]oxazol-2-yloxy)-6-(1-cyclopropyl-1H-pyrazol-4-yl)-2-methyl-3,4-dihydroquinolin-1(2H)-yl)ethanone]: the IC50 in test [1] was 100 to 1000 nM; in test [2] it was 50 to 500 nM; in test [3] it was under 500 nM.

Regarding `COC(=O)N1c2ccc(-c3cnn([C@H]4CCNC[C@H]4F)c3)c(OC3CCC3)c2CC[C@@H]1C` [I-362, methyl (2S)-5-cyclobutoxy-6-{1-[(3R,4S)-3-fluoropiperidin-4-yl]-1H-pyrazol-4-yl}-2-methyl-1,2,3,4-tetrahydroquinoline-1-carboxylate], the IC50 in test [1] was 100 to 1000 nM; in test [2] it was under 50 nM; in test [3] it was under 500 nM.

As for `COC(=O)N1c2ccc(-c3cnn(CC(C)(C)O)c3)c(OC3CCC3)c2CC[C@@H]1C` [I-445], the values for the IC50 in test [1], in test [2] and in test [3] were 1000 to 10000 nM, under 50 nM and under 500 nM, respectively.

Take `COC(=O)N1c2ccc(-c3cnn(CC(C)(C)O)c3)c(Oc3cnccn3)c2CC[C@@H]1C` [I-559]: the IC50 lay within 1000 to 10000 nM in test [1], 50 to 500 nM in test [2] and 500 to 1000 nM in test [3].
